Data published in patent US10385019B2, “Inhibitors of EGFR and methods of use thereof” (Dana-Farber Cancer Institute, Inc., priority 2015, dated 2019).

Molecular target: EGFR T790M/L858R Ba/F3 cell line (Homo sapiens, UniProt P00533, T790M/L858R, cells depend on it)
Test: Ba/F3 cell proliferation model
Type: cell-based, murine
Settings: combined with cetuximab (% cetuximab, 1.0 μM drug concentration with 1.0 μg/mL cetuximab)
Description: The selectivity between wild-type EGFR and EGFR containing one or more mutations as described herein can also be measured using cellular proliferation assays where cell proliferation is dependent on kinase activity. For example, murine Ba/F3 cells transfected with a suitable version of wild-type EGFR (such as VIII; containing a WT EGFR kinase domain), or Ba/F3 cells transfected with L858R/T790M, Del/T790M/L718Q, L858R/T790M/L718Q, L858R/T790M/C797S, Del/T790M/C797S, L858R/T790M/I941R, or Exon 19 deletion/T790M can be used.
Cell lines are plated in media. The compounds of the present disclosure are then serially diluted and transferred to the cells. Cell viability is measured via a luminescent readout. Data is analyzed by non-linear regression curve-fitting. […]
The EGFR mutant L858R, Del E746_A750, L858R/T790M, DelE746_A750/T790M, L858R/T790M/C797S and Del/T790M/C797S Ba/F3 cells have been previously described (Zhou, W., Ercan, D., Chen, L., Yun, C. H., Li, D., Capelletti, M., Cortot, A. B., Chirieac, L., Iacob, R. E., Padera, R., et al. “Novel mutant-selective EGFR kinase inhibitors against EGFR T790M,” Nature 462, (2009), 1070-1074). All cell lines were maintained in RPMI 1640 (Cellgro; Mediatech Inc., Herndon, Calif.) supplemented with 10% FBS 100 units/mL penicillin, 100 units/mL streptomycin, and 2 mM glutamine. L858R cells were maintained in ACL-4 media (Invitrogen, Carlsbad, Calif.) supplemented with 5% FBS, 100 units/mL penicillin, 100 units/mL streptomycin, and 2 mM glutamine. The EGFR I941R mutation was introduced via site directed mutagenesis using the Quick Change Site-Directed Mutagenesis kit (Stratagene; La Jolla, Calif.) according to the manufacturer's instructions. All constructs were confirmed by DNA sequencing. The constructs were shuttled into the retroviral vector JP 1540 using the BD Creator™ System (BD Biosciences). Ba/F3 cells were infected with retrovirus and according to standard protocols, as described previously (Zhou et al, Nature 2009). Stable clones were obtained by selection in puromycin (2 μg/ml).
Growth and inhibition of growth was assessed by MTS assay and was performed according to previously established methods (Zhou et al., Nature 2009). The MTS assay is a colorimetric method for determining the number of viable cells that is based on the bioreduction of MTS by cells to a formazan product that is soluble in cell culture medium and can be detected spectrophotometrically. Ba/F3 cells of different EGFR genotypes were exposed to treatment for 72 hours and the number of cells used per experiment determined empirically and has been previously established (Zhou et al., Nature 2009). All experimental points were set up in six wells and all experiments were repeated at least three times. […] The curves were fitted using a non-linear regression model with a sigmoidal dose response.
Inhibition data of an EGFR T790M/L858R Ba/F3 cell line.

EGFR T790M/L858R Ba/F3 cell line, sequence (P00533 whole entry T790M/L858R): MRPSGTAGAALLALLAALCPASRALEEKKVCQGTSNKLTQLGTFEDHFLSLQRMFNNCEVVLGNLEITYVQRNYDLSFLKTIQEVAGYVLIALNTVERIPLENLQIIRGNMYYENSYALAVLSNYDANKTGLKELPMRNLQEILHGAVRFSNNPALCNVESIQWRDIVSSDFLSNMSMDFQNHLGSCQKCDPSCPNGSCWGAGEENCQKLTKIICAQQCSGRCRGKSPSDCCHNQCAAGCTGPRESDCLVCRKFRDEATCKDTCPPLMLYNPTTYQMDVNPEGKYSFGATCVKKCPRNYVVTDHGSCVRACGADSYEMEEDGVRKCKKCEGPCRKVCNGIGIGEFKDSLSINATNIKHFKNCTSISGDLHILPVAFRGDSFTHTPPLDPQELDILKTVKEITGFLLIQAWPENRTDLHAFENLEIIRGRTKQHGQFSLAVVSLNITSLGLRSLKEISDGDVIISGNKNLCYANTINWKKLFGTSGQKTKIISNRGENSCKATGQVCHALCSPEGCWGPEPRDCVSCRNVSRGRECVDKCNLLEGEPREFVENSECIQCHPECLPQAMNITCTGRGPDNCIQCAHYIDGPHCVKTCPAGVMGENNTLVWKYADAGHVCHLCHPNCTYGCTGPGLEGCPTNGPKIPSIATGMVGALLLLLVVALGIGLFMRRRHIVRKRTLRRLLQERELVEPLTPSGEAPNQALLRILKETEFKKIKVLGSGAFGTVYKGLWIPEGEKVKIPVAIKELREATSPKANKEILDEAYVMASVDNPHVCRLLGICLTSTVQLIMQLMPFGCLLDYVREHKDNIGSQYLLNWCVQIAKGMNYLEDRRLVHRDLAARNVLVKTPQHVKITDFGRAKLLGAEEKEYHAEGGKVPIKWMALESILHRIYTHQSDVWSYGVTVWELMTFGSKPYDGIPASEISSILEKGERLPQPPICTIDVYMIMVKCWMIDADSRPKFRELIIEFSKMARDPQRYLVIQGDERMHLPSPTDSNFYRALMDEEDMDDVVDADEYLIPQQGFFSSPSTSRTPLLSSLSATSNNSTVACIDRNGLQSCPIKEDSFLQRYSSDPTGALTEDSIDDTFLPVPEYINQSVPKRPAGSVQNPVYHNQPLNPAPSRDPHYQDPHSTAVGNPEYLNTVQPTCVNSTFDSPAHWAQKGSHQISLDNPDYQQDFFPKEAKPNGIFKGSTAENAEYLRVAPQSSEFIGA

SMILES | Activity (% inhibition)
CN(C)CCCCNC(=O)c1ccc(-c2ccc3c(c2)C(=O)N([C@@H](C(=O)Nc2nccs2)c2ccccc2)C3)cc1 [Compound I-82, (R)-N-(4-(dimethylamino)butyl)-4-(3-oxo-2-(2-oxo-1-phenyl-2-(thiazol-2-ylamino)ethyl)isoindolin-5-yl)benzamide] | C (a % inhibition of between about 25% to about 50%)
CCn1cc(-c2ccc3c(c2)C(=O)N([C@@H](C(=O)Nc2nccs2)c2ccccc2)C3)cn1 [Compound I-63, (R)-2-(6-(1-ethyl-1H-pyrazol-4-yl)-1-oxoisoindolin-2-yl)-2-phenyl-N-(thiazol-2-yl)acetamide] | C (a % inhibition of between about 25% to about 50%)
O=C(Nc1nccs1)[C@@H](c1ccccc1)N1Cc2ccc(-c3cccnc3)cc2C1=O [Compound I-60, (R)-2-(1-oxo-6-(pyridin-3-yl)isoindolin-2-yl)-2-phenyl-N-(thiazol-2-yl)acetamide] | C (a % inhibition of between about 25% to about 50%)
O=C(O)c1ccc(-c2ccc3c(c2)C(=O)N([C@@H](C(=O)Nc2nccs2)c2ccccc2)C3)cc1 [Compound I-78, (R)-4-(3-oxo-2-(2-oxo-1-phenyl-2-(thiazol-2-ylamino)ethyl)isoindolin-5-yl)benzoic acid] | A (a % inhibition of about 75%)
O=C(Nc1nccs1)[C@H](Cc1ccccc1)N1Cc2ccccc2C1=O [Compound I-45, (S)-2-(1-oxoisoindolin-2-yl)-3-phenyl-N-(thiazol-2-yl) propanamide] | A (a % inhibition of about 75%)
O=C(Nc1nccs1)[C@@H](c1ccccc1)N1Cc2ccc(-c3ccncc3)cc2C1=O [Compound I-61, (R)-2-(1-oxo-6-(pyridin-4-yl)isoindolin-2-yl)-2-phenyl-N-(thiazol-2-yl)acetamide] | C (a % inhibition of between about 25% to about 50%)
O=C(NCCCN1CCOCC1)c1cccc(-c2ccc3c(c2)C(=O)N([C@@H](C(=O)Nc2nccs2)c2ccccc2)C3)c1 [Compound I-91, (R)-N-(3-morpholinopropyl)-3-(3-oxo-2-(2-oxo-1-phenyl-2-(thiazol-2-ylamino)ethyl)isoindolin-5-yl)benzamide] | D (a % inhibition of between about 0% to about 25%)
COc1ccc(-c2ccc3c(c2)C(=O)N([C@@H](C(=O)Nc2nccs2)c2ccccc2)C3)c(OC)c1 [Compound I-80, (R)-2-(6-(2,4-dimethoxyphenyl)-1-oxoisoindolin-2-yl)-2-phenyl-N-(thiazol-2-yl)acetamide] | C (a % inhibition of between about 25% to about 50%)
O=C(NCC(O)CO)c1cc(N[C@@H](C(=O)Nc2nccs2)c2ccccc2)ccc1[N+](=O)[O-] (stereo partly drawn) [Compound I-110, N-(2,3-dihydroxypropyl)-2-nitro-5-(((R)-2-oxo-1-phenyl-2-(thiazol-2-ylamino)ethyl)amino)benzamide] | A (a % inhibition of about 75%)
CNC(=O)c1csc(NC(=O)[C@@H](c2ccccc2)N2Cc3ccccc3C2=O)n1 [Compound I-9, (R)-N-methyl-2-(2-(1-oxoisoindolin-2-yl)-2-phenylacetamido) thiazole-4-carboxamide] | A (a % inhibition of about 75%)
O=C(Nc1nccs1)C(c1ccccn1)N1Cc2ccc(-c3ccc4[nH]ccc4c3)cc2C1=O (stereo not drawn) [Compound I-123, 2-(6-(1H-indol-5-yl)-1-oxoisoindolin-2-yl)-2-(pyridin-2-yl)-N-(thiazol-2-yl)acetamide] | D (a % inhibition of between about 0% to about 25%)
O=C(Nc1nc(CCCN2CCOCC2)cs1)[C@@H](c1ccccc1)N1Cc2ccccc2C1=O [Compound I-43, (R)-N-(4-(3-morpholinopropyl)thiazol-2-yl)-2-(1-oxoisoindolin-2-yl)-2-phenylacetamide] | A (a % inhibition of about 75%)
O=C(Nc1ccccc1)[C@@H](c1ccccc1)N1Cc2ccccc2C1=O [Compound I-51, (R)-2-(1-oxoisoindolin-2-yl)-N,2-diphenylacetamide] | A (a % inhibition of about 75%)
O=C(Nc1nccs1)[C@@H](c1ccccc1)N1Cc2cc(Nc3cccc(CN4CCCC4)c3)ccc2C1=O [Compound I-95, (R)-2-(1-oxo-5-((3-(pyrrolidin-1-ylmethyl)phenyl)amino)isoindolin-2-yl)-2-phenyl-N-(thiazol-2-yl)acetamide] | B (a % inhibition of between about 50% to about 75%)
Nc1cccc([C@@H](C(=O)Nc2nccs2)N2Cc3ccccc3C2=O)c1 [Compound I-13, (S)-2-(3-aminophenyl)-2-(1-oxoisoindolin-2-yl)-N-(thiazol-2-yl)acetamide] | A (a % inhibition of about 75%)
O=C(Nc1ncc(Br)s1)[C@@H](c1ccccc1)N1Cc2ccccc2C1=O [Compound I-40, (R)-N-(5-bromothiazol-2-yl)-2-(1-oxoisoindolin-2-yl)-2-phenylacetamide] | A (a % inhibition of about 75%)
CN1CCN(c2ccc(-c3ccc4c(c3)CN([C@@H](C(=O)Nc3nccs3)c3ccccc3)C4=O)cc2)CC1 [Compound I-102, (R)-2-(5-(4-(4-methylpiperazin-1-yl)phenyl)-1-oxoisoindolin-2-yl)-2-phenyl-N-(thiazol-2-yl)acetamide] | B (a % inhibition of between about 50% to about 75%)
COC(=O)c1cc(Br)ccc1N[C@H](C(=O)Nc1nccs1)c1ccccc1 [Compound I-107, methyl (S)-5-bromo-2-((2-oxo-1-phenyl-2-(thiazol-2-ylamino)ethyl)amino)benzoate] | B (a % inhibition of between about 50% to about 75%)
O=C(Nc1nccs1)[C@@H](c1ccccc1)N1Cc2ccc(Nc3cccc(F)c3)cc2C1=O [Compound I-99, (R)-2-(6-((3-fluorophenyl)amino)-1-oxoisoindolin-2-yl)-2-phenyl-N-(thiazol-2-yl)acetamide] | C (a % inhibition of between about 25% to about 50%)
O=C(Nc1cnoc1)[C@@H](c1ccccc1)N1Cc2ccc(-c3ccc4[nH]ccc4c3)cc2C1=O [Compound I-130, (R)-2-(6-(1H-indol-5-yl)-1-oxoisoindolin-2-yl)-N-(isoxazol-4-yl)-2-phenylacetamide] | C (a % inhibition of between about 25% to about 50%)
CN(C(=O)[C@@H](c1ccccc1)N1Cc2ccccc2C1=O)c1nccs1 [Compound I-58, (R)-N-methyl-2-(1-oxoisoindolin-2-yl)-2-phenyl-N-(thiazol-2-yl)acetamide] | B (a % inhibition of between about 50% to about 75%)
O=C(Nc1nccs1)[C@@H](c1cccc([N+](=O)[O-])c1)N1Cc2ccc(-c3ccc4[nH]ccc4c3)cc2C1=O [Compound I-109, (R)-2-(6-(1H-indol-5-yl)-1-oxoisoindolin-2-yl)-2-(3-nitrophenyl)-N-(thiazol-2-yl)acetamide] | B (a % inhibition of between about 50% to about 75%)
O=C(Nc1nccs1)[C@@H](c1cc(F)ccc1O)N1Cc2ccc(-c3ccc(N4CCNCC4)cc3)cc2C1=O [Compound I-126, (R)-2-(5-fluoro-2-hydroxyphenyl)-2-(1-oxo-6-(4-(piperazin-1-yl)phenyl)isoindolin-2-yl)-N-(thiazol-2-yl)acetamide] | D (a % inhibition of between about 0% to about 25%)
O=C(Nc1cnc(Br)cn1)[C@@H](c1ccccc1)N1Cc2ccccc2C1=O [Compound I-27, (R)-N-(5-bromopyrazin-2-yl)-2-(1-oxoisoindolin-2-yl)-2-phenylacetamide] | A (a % inhibition of about 75%)
O=C(Nc1nc(C(F)(F)F)cs1)[C@@H](c1ccccc1)N1Cc2ccccc2C1=O [Compound I-6, (R)-2-(1-oxoisoindolin-2-yl)-2-phenyl-N-(4-(trifluoromethyl)thiazol-2-yl)acetamide] | A (a % inhibition of about 75%)

Same assay, conditions: compound alone; read-out: L858R/T790M IC50

SMILES | GI50
O=C(Nc1nccs1)[C@@H](c1cc(F)ccc1O)N1Cc2ccc(-c3ccc(N4CCNCC4)cc3)cc2C1=O [Compound I-126, (R)-2-(5-fluoro-2-hydroxyphenyl)-2-(1-oxo-6-(4-(piperazin-1-yl)phenyl)isoindolin-2-yl)-N-(thiazol-2-yl)acetamide] | 500 to 1000 nM

Same assay, conditions: read-out: L858R/T790M Cetuximab IC50; in combination with Cetuximab

SMILES | GI50
O=C(Nc1nccs1)[C@@H](c1cc(F)ccc1O)N1Cc2ccc(-c3ccc(N4CCNCC4)cc3)cc2C1=O [Compound I-126, (R)-2-(5-fluoro-2-hydroxyphenyl)-2-(1-oxo-6-(4-(piperazin-1-yl)phenyl)isoindolin-2-yl)-N-(thiazol-2-yl)acetamide] | < 500 nM
